Data published in ChEMBL document CHEMBL4411306, “High-throughput screening of novel pyruvate dehydrogenase kinases inhibitors and biological evaluation of their in vitro and in vivo antiproliferative activity” (Eur J Med Chem, 2019).
Activity calls are given as the source filed them. The calls are words filed in the database; no cut-off is given here.

What was measured:
[1] = biological target: T1, [Pyruvate dehydrogenase (acetyl-transferring)] kinase isozyme 2, mitochondrial (Homo sapiens, UniProt Q15119); assay: Inhibition of recombinant human His6-tagged N-terminal PDHK2 (A8 to T399 residues) expressed in baculovirus expression system using PDC as substrate incubated for 10 mins followed by ATP addition measured at 12 secs interval for 20 mins
[2] = Inhibition of porcine PDK assessed as activation of pyruvate dehydrogenase complex measured after 3 mins; design: species or system Sus scrofa
NCI-H1975 [3] = assay: Inhibition of PDK in human NCI-H1975 cells assessed as reduction in PDH phosphorylation at 10 uM after 12 hrs by Western blot analysis; format: cell-based
[4] = biological target: T2, [Pyruvate dehydrogenase (acetyl-transferring)] kinase isozyme 1, mitochondrial (Homo sapiens, UniProt Q15118); assay: Inhibition of recombinant human His-tagged PDK1 expressed in Escherichia coli using PDH E1 as substrate measured after 30 mins by Kinase-Glo luminescence assay
[5] = biological target: T1, [Pyruvate dehydrogenase (acetyl-transferring)] kinase isozyme 2, mitochondrial; assay: Inhibition of recombinant human His-tagged PDK2 expressed in Escherichia coli using PDH E1 as substrate measured after 30 mins by Kinase-Glo luminescence assay
[6] = biological target: [Pyruvate dehydrogenase (acetyl-transferring)] kinase isozyme 3, mitochondrial (Homo sapiens, UniProt Q15120); assay: Inhibition of recombinant human His-tagged PDK3 expressed in Escherichia coli using PDH E1 as substrate measured after 30 mins by Kinase-Glo luminescence assay
[7] = biological target: [Pyruvate dehydrogenase (acetyl-transferring)] kinase isozyme 4, mitochondrial (Homo sapiens, UniProt Q16654); assay: Inhibition of recombinant human His-tagged PDK4 expressed in Escherichia coli using PDH E1 as substrate measured after 30 mins by Kinase-Glo luminescence assay
Heat shock protein HSP90 = Heat shock protein HSP90 (Homo sapiens, UniProt P07900+P08238); assay: Inhibition of human HSP90 measured after 30 mins by fluorescence polarization assay; format: protein assay
[8] = biological target: T2, [Pyruvate dehydrogenase (acetyl-transferring)] kinase isozyme 1, mitochondrial; assay: Binding affinity to recombinant human His-tagged PDK1 expressed in Escherichia coli by isothermal calorimetry
A549 = assay: Antiproliferative activity against human A549 cells assessed as reduction in cell viability after 72 hrs by MTT assay; format: functional
NCI-H1650 = assay: Antiproliferative activity against human NCI-H1650 cells assessed as reduction in cell viability after 72 hrs by MTT assay; format: functional
NCI-H1975 [9] = assay: Antiproliferative activity against human NCI-H1975 cells assessed as reduction in cell viability after 72 hrs by MTT assay; format: functional
MCF7 = assay: Antiproliferative activity against human MCF7 cells assessed as reduction in cell viability after 72 hrs by MTT assay; format: functional
A-375 = assay: Antiproliferative activity against human A375 cells assessed as reduction in cell viability after 72 hrs by MTT assay; format: functional
HepG2 = assay: Antiproliferative activity against human HepG2 cells assessed as reduction in cell viability after 72 hrs by MTT assay; format: functional
HCT-116 = assay: Antiproliferative activity against human HCT116 cells assessed as reduction in cell viability after 72 hrs by MTT assay; format: functional
[10] = Antiproliferative activity against human BEAS2B cells assessed as reduction in cell viability after 72 hrs by MTT assay; format: cell-based; details: BEAS-2B cells, read-out: GC50
[11] = Permeability across human Caco2 cells by liquid scintillation counting method; format: ADME, cell-based; details: caco-2
NCI-H1975 [12] = assay: Induction of apoptosis in human NCI-H1975 cells assessed as live cells at 0.5 uM after 12 hrs by Annexin V-FITC/propidium iodide staining based flow cytometry (reference value: 92.7%); format: functional
NCI-H1975 [13] = assay: Induction of apoptosis in human NCI-H1975 cells assessed as early apoptotic cells at 0.5 uM after 12 hrs by Annexin V-FITC/propidium iodide staining based flow cytometry (reference value: 1.8%); format: functional
NCI-H1975 [14] = assay: Induction of apoptosis in human NCI-H1975 cells assessed as late apoptotic cells at 0.5 uM after 12 hrs by Annexin V-FITC/propidium iodide staining based flow cytometry (reference value: 3.7%); format: functional
NCI-H1975 [15] = assay: Induction of apoptosis in human NCI-H1975 cells assessed as necrotic cells at 0.5 uM after 12 hrs by Annexin V-FITC/propidium iodide staining based flow cytometry (reference value: 1.8%); format: functional
NCI-H1975 [16] = assay: Induction of apoptosis in human NCI-H1975 cells assessed as live cells at 2 uM after 12 hrs by Annexin V-FITC/propidium iodide staining based flow cytometry (reference value: 92.7%); format: functional
NCI-H1975 [17] = assay: Induction of apoptosis in human NCI-H1975 cells assessed as early apoptotic cells at 2 uM after 12 hrs by Annexin V-FITC/propidium iodide staining based flow cytometry (reference value: 1.8%); format: functional
NCI-H1975 [18] = assay: Induction of apoptosis in human NCI-H1975 cells assessed as late apoptotic cells at 2 uM after 12 hrs by Annexin V-FITC/propidium iodide staining based flow cytometry (reference value: 3.7%); format: functional
NCI-H1975 [19] = assay: Induction of apoptosis in human NCI-H1975 cells assessed as necrotic cells at 2 uM after 12 hrs by Annexin V-FITC/propidium iodide staining based flow cytometry (reference value: 1.8%); format: functional
NCI-H1975 [20] = assay: Induction of apoptosis in human NCI-H1975 cells assessed as live cells at 4 uM after 12 hrs by Annexin V-FITC/propidium iodide staining based flow cytometry (reference value: 92.7%); format: functional
NCI-H1975 [21] = assay: Induction of apoptosis in human NCI-H1975 cells assessed as early apoptotic cells at 4 uM after 12 hrs by Annexin V-FITC/propidium iodide staining based flow cytometry (reference value: 1.8%); format: functional
NCI-H1975 [22] = assay: Induction of apoptosis in human NCI-H1975 cells assessed as late apoptotic cells at 4 uM after 12 hrs by Annexin V-FITC/propidium iodide staining based flow cytometry (reference value: 3.7%); format: functional
NCI-H1975 [23] = assay: Induction of apoptosis in human NCI-H1975 cells assessed as necrotic cells at 4 uM after 12 hrs by Annexin V-FITC/propidium iodide staining based flow cytometry (reference value: 1.8%); format: functional
NCI-H1975 [24] = assay: Induction of apoptosis in human NCI-H1975 cells assessed as live cells at 10 uM after 12 hrs by Annexin V-FITC/propidium iodide staining based flow cytometry (reference value: 92.7%); format: functional
NCI-H1975 [25] = assay: Induction of apoptosis in human NCI-H1975 cells assessed as early apoptotic cells at 10 uM after 12 hrs by Annexin V-FITC/propidium iodide staining based flow cytometry (reference value: 1.8%); format: functional
NCI-H1975 [26] = assay: Induction of apoptosis in human NCI-H1975 cells assessed as late apoptotic cells at 10 uM after 12 hrs by Annexin V-FITC/propidium iodide staining based flow cytometry (reference value: 3.7%); format: functional
NCI-H1975 [27] = assay: Induction of apoptosis in human NCI-H1975 cells assessed as necrotic cells at 10 uM after 12 hrs by Annexin V-FITC/propidium iodide staining based flow cytometry (reference value: 1.8%); format: functional
NCI-H1975 [28] = assay: Induction of apoptosis in human NCI-H1975 cells after 12 hrs by Annexin V-FITC/propidium iodide staining based flow cytometry; format: functional, cell-based
NCI-H1975 [29] = assay: Antitumor activity against human NCI-H1975 cells xenografted in nude mouse assessed as tumor growth inhibition administered orally once daily for 21 days; format: functional, cell-based
[30] = Toxicity in nude mouse xenografted with human NCI-H1975 cells assessed as effect on body weight at 10 to 20 mg/kg, po administered once daily for 21 days measured twice weekly during compound dosing; format: organism-based; details: in vivo, 504 h
NCI-H1975 [31] = assay: Antitumor activity against human NCI-H1975 cells xenografted in nude mouse assessed as reduction in tumor weight administered orally once daily for 21 days; format: functional, cell-based
Mus musculus = assay: In-vivo of inhibition of PDH phosphorylation in tumor of nude mouse xenografted with human NCI-H1975 cells at 10 to 20 mg/kg, po administered once daily for 21 days measured post last dose by Western blot analysis; format: functional, organism-based
[32] = biological target: T2, [Pyruvate dehydrogenase (acetyl-transferring)] kinase isozyme 1, mitochondrial; assay: Inhibition of PDK1 in human NCI-H1975 cells assessed as switch of pyruvate metabolism from lactate production to oxidative phosphorylation by measuring decrease in extracellular acidification rate at 1 to 10 uM measured after 4 hrs by XFe24 extracellular flux analyzer based assay; format: cell-based
[33] = biological target: T2, [Pyruvate dehydrogenase (acetyl-transferring)] kinase isozyme 1, mitochondrial; assay: Inhibition of PDK1 in human NCI-H1975 cells assessed as switch of pyruvate metabolism from lactate production to oxidative phosphorylation by measuring increase in oxygen consumption rates at 1 to 10 uM measured after 4 hrs by XFe24 extracellular flux analyzer based assay; format: cell-based
[34] = biological target: T2, [Pyruvate dehydrogenase (acetyl-transferring)] kinase isozyme 1, mitochondrial; assay: Inhibition of PDK1 in human NCI-H1975 cells assessed as switch of pyruvate metabolism from lactate production to oxidative phosphorylation by measuring by measuring reduction in lactate formation at 10 uM measured after 4 hrs; format: cell-based
[35] = biological target: T2, [Pyruvate dehydrogenase (acetyl-transferring)] kinase isozyme 1, mitochondrial; assay: Inhibition of PDK1 in human NCI-H1975 cells assessed as switch of pyruvate metabolism from lactate production to oxidative phosphorylation by measuring increase in ROS production at high concentration after 4 hrs by DCFH-DA dye based assay; format: cell-based
NCI-H1975 [36] = assay: Inhibition of PDK in human NCI-H1975 cells assessed as reduction in PDH phosphorylation at 10 mM after 12 hrs by Western blot analysis; format: cell-based
NCI-H1975 [37] = assay: Inhibition of PDK in human NCI-H1975 cells assessed as reduction in PDH phosphorylation at Ser293 residue at 10 mM by ELISA; format: cell-based
Sus scrofa = organism: Sus scrofa; assay: Inhibition of porcine PDK assessed as activation of pyruvate dehydrogenase complex at 10 mM measured after 3 mins relative to control
[38] = biological target: T2, [Pyruvate dehydrogenase (acetyl-transferring)] kinase isozyme 1, mitochondrial; details: NCI-H1975, 10 mM
Description: Inhibition of PDK1 in human NCI-H1975 cells assessed as switch of pyruvate metabolism from lactate production to oxidative phosphorylation by measuring decrease in extracellular acidification rate at 10 mM measured after 4 hrs by XFe24 extracellular flux analyzer based assay

[39] = biological target: T2, [Pyruvate dehydrogenase (acetyl-transferring)] kinase isozyme 1, mitochondrial; details: NCI-H1975, 10 mM; remark: listed apart in the source
Description: Inhibition of PDK1 in human NCI-H1975 cells assessed as switch of pyruvate metabolism from lactate production to oxidative phosphorylation by measuring increase in oxygen consumption rates at 10 mM measured after 4 hrs by XFe24 extracellular flux analyzer based assay

[40] = biological target: T2, [Pyruvate dehydrogenase (acetyl-transferring)] kinase isozyme 1, mitochondrial; details: NCI-H1975, 10 mM; remark: listed apart in the source
Description: Inhibition of PDK1 in human NCI-H1975 cells assessed as switch of pyruvate metabolism from lactate production to oxidative phosphorylation by measuring by measuring reduction in lactate formation at 10 mM measured after 4 hrs

T2 sequence (Q15118 whole entry): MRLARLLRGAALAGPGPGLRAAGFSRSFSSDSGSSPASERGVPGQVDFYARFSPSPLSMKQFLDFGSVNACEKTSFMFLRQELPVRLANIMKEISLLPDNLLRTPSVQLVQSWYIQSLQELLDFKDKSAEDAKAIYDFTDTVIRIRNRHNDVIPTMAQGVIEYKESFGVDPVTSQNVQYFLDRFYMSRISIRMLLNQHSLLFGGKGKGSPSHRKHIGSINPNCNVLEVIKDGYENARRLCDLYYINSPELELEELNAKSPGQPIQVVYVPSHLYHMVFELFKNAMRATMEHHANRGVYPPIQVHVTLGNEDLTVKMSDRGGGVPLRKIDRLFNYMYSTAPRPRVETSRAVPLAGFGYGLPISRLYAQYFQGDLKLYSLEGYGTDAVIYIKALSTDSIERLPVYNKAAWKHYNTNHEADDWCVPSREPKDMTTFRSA
Chain of [Pyruvate dehydrogenase (acetyl-transferring)] kinase isozyme 4, mitochondrial (Q16654 whole entry): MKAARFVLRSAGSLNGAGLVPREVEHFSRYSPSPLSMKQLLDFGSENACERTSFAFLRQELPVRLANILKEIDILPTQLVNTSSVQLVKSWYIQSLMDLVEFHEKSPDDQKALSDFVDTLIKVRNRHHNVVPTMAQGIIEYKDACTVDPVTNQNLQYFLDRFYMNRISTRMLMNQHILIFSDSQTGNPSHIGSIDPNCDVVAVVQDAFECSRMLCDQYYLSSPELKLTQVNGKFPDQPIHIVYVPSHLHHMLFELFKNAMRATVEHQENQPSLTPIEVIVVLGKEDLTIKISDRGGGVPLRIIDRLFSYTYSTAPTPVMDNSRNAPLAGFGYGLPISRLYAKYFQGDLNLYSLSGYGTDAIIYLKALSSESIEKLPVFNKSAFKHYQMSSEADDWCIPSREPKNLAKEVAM
Chain of [Pyruvate dehydrogenase (acetyl-transferring)] kinase isozyme 3, mitochondrial (Q15120 whole entry): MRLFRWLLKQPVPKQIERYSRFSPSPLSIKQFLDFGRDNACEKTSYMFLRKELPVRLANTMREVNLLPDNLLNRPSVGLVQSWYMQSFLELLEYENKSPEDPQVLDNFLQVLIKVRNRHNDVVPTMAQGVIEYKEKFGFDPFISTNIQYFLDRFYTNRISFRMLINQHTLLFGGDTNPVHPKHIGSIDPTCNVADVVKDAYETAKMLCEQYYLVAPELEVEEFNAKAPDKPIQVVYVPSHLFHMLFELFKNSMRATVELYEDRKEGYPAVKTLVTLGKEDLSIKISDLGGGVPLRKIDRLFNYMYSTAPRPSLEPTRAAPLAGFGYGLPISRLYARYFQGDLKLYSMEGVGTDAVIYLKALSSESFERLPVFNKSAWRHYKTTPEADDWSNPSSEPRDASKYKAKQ

CC(C)c1ccc(COc2ccc(CC(=O)NCCN)cc2Cl)cc1
IC50 [1]: 2000 nM

Cc1cccc(NC(=O)CSc2n[nH]c(-c3ccccc3O)n2)c1C
EC50 [2]: 340 nM | reduction in PDH phosphorylation (qualitative) (NCI-H1975 [3]): Active | IC50 [4]: 290 nM | IC50 [5]: 3800 nM | IC50 [6]: 5700 nM | IC50 [7]: 2500 nM | IC50 (Heat shock protein HSP90): 780 nM | Kd [8]: 870 nM | Activity (A549): Dose-dependent effect | GC50 (A549): 7900 nM | Activity (NCI-H1650): Dose-dependent effect | GC50 (NCI-H1650): 3100 nM | Activity (NCI-H1975 [9]): Dose-dependent effect | GC50 (NCI-H1975 [9]): 2300 nM | Activity (MCF7): Dose-dependent effect | GC50 (MCF7): 9500 nM | Activity (A-375): Dose-dependent effect | GC50 (A-375): 6400 nM | Activity (HepG2): Dose-dependent effect | GC50 (HepG2): 5200 nM | Activity (HCT-116): Dose-dependent effect | GC50 (HCT-116): 12700 nM | GI50 at 72 h [10]: > 20000 nM | Papp [11]: 8.51 ×10⁻⁶ cm/s | Activity (NCI-H1975 [12]): 92.3% | Activity (NCI-H1975 [13]): 2% | Activity (NCI-H1975 [14]): 4.8% | Activity (NCI-H1975 [15]): 0.9% | Activity (NCI-H1975 [16]): 90.3% | Activity (NCI-H1975 [17]): 3.1% | Activity (NCI-H1975 [18]): 5% | Activity (NCI-H1975 [19]): 1.6% | Activity (NCI-H1975 [20]): 85.5% | Activity (NCI-H1975 [21]): 2.7% | Activity (NCI-H1975 [22]): 10.6% | Activity (NCI-H1975 [23]): 1.2% | Activity (NCI-H1975 [24]): 73.4% | Activity (NCI-H1975 [25]): 13.1% | Activity (NCI-H1975 [26]): 11.1% | Activity (NCI-H1975 [27]): 2.4% | Activity (NCI-H1975 [28]): Dose-dependent effect | TGI (NCI-H1975 [29]): Dose-dependent effect | Activity [30]: Non-Toxic | Activity (NCI-H1975 [31]): Dose-dependent effect | inhibition (Mus musculus): Active | inhibition [32]: Active | inhibition [33]: Active | inhibition [34]: Active | inhibition [35]: Active

O=C(O)C(Cl)Cl [DICHLOROACETIC ACID]
EC50 [2]: > 100000 nM | inhibition (NCI-H1975 [36]): Active | inhibition (NCI-H1975 [37]): Active | inhibition (Sus scrofa): 54.8% | inhibition [38]: Active | inhibition [39]: Active | inhibition [40]: Active
